In ChEMBL document CHEMBL2057129, “Evaluation of synthetic FK506 analogues as ligands for the FK506-binding proteins 51 and 52” (J Med Chem, 2012) one finds IC50 data, which are given here for 31 compounds.

The target of test [1] is Peptidyl-prolyl cis-trans isomerase FKBP1A (Homo sapiens, UniProt P62942). As to the kind of experiment: Binding affinity to FKBP12 by fluorescence polarization assay.
Test [2] has as its target T1, Peptidyl-prolyl cis-trans isomerase FKBP5 (Homo sapiens, UniProt Q13451).
T1 sequence (Q13451 whole entry): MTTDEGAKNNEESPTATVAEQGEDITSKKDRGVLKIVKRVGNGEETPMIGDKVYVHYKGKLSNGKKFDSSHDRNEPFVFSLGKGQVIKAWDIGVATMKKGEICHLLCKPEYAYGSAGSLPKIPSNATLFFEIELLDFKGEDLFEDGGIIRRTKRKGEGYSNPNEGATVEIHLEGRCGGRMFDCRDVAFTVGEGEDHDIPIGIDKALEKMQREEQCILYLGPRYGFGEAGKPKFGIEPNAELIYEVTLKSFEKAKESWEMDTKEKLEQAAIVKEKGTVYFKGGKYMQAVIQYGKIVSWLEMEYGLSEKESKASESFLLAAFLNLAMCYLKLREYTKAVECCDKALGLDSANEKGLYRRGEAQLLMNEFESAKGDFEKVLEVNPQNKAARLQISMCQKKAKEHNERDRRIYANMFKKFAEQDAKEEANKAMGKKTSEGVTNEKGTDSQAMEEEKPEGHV
As to the kind of experiment: Binding affinity to FKBP51 FK1 domain by fluorescence polarization assay.

For test [3], the target named is T2, Peptidyl-prolyl cis-trans isomerase FKBP4 (Homo sapiens, UniProt Q02790).
T2 sequence (Q02790 whole entry): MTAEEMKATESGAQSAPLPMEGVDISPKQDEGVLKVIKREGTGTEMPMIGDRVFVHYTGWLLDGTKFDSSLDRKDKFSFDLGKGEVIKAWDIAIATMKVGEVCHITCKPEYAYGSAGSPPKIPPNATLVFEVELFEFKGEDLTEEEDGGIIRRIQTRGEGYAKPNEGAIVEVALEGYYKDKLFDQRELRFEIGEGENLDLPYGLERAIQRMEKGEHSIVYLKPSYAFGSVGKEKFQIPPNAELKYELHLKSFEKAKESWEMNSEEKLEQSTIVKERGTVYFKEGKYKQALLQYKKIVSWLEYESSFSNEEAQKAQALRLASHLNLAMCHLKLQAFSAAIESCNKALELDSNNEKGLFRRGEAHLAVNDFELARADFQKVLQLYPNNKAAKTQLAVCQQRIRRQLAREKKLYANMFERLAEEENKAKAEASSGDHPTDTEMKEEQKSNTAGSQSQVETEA
As to the kind of experiment: Binding affinity to FKBP52 FK1 domain by fluorescence polarization assay.

Chain of Peptidyl-prolyl cis-trans isomerase FKBP1A (P62942 whole entry): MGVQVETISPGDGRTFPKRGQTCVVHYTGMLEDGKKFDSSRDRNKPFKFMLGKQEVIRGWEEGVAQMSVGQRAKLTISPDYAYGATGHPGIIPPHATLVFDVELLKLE

Consider `CCC(C)(C)C(=O)C(=O)N1CCCC[C@H]1C(=O)OCCCc1cccnc1`, for which the IC50 in test [1] was 2110 nM; in test [2], more than 150000 nM; in test [3], more than 150000 nM.

In the case of `CCC(C)(C)C(=O)C(=O)N1CCC[C@H]1C(=O)O[C@H](CCc1ccc(OC)c(OC)c1)c1cccc(OCC(=O)O)c1`, in test [1], the IC50 was determined as 800 nM.

`CCC(C)(C)C(=O)C(=O)N1CC=CC[C@H]1C(=O)O[C@H](CCc1ccc(OC)c(OC)c1)c1cccc(OCC(=O)O)c1` had an IC50 in test [1] of 550 nM.

As for `CCC(C)(C)C(=O)C(=O)N1CCSC[C@H]1C(=O)O[C@H](CCc1ccc(OC)c(OC)c1)c1cccc(OCC(=O)O)c1`, the IC50 in test [1] is 1290 nM; in test [2], more than 100000 nM; in test [3], more than 100000 nM.

Take `CCC(C)(C)C(=O)C(=O)N1CCCC[C@H]1C(=O)OC`: the IC50 was 17100 nM in test [1], more than 100000 nM in test [2] and more than 100000 nM in test [3].

On to `CCC(C)(C)C(=O)C(=O)N1CCCC[C@H]1C(=O)OCCOc1ccc(OC)c(OC)c1`, for which the IC50 was 2450 nM in test [1], more than 100000 nM in test [2] and more than 100000 nM in test [3].

For the compound `CCC(C)(C)C(=O)C(=O)N1CCCC[C@H]1C(=O)O[C@H](CCc1ccc(OC)c(OC)c1)c1cccc(OCCN2CCOCC2)c1`, the IC50 in test [1] turned out to be 100 nM; in test [3] it was 2800 nM.

As to `CCC(C)(C)C(=O)C(=O)N1CCC[C@H]1C(=O)O[C@H](CCc1ccc(OC)c(OC)c1)c1cccc(OCCN2CCOCC2)c1`, the IC50 in test [1] was 1050 nM; in test [2], 15300 nM; in test [3], 5550 nM.

On to `CCC(C)(C)C(=O)C(=O)N1CCCC[C@H]1C(=O)O[C@H](CCc1ccc(OC)c(OC)c1)c1cccc(N)c1`, for which the IC50 turned out to be 3800 nM in test [2] and 1070 nM in test [3].

The compound `COc1ccc(CC[C@@H](OC(=O)[C@@H]2CCCCN2C(=O)C(=O)c2cc(OC)c(OC)c(OC)c2)c2cccc(OCC(=O)O)c2)cc1OC` showed an IC50 in test [1] of 150 nM.

`COc1ccc(CC[C@@H](OC(=O)[C@@H]2CCCCN2C(=O)C(=O)[C@]2(O)CCCC[C@H]2C)c2cccc(OCC(=O)O)c2)cc1OC` displayed an IC50 in test [1] of 60 nM.

`CC[C@@H]1CCCC[C@@]1(O)C(=O)C(=O)N1CCCC[C@H]1C(=O)O[C@H](CCc1ccc(OC)c(OC)c1)c1cccc(OCC(=O)O)c1` returned an IC50 in test [1] of 130 nM.

Take `CC[C@H]1CCCC[C@]1(O)C(=O)C(=O)N1CCCC[C@H]1C(=O)O[C@H](CCc1ccc(OC)c(OC)c1)c1cccc(OCC(=O)O)c1`: the IC50 in test [1] turned out to be 343 nM.

As for `COc1ccc(CC[C@@H](OC(=O)[C@@H]2CCCCN2C(=O)C(=O)[C@]2(O)CCCC[C@H]2CO)c2cccc(OCC(=O)O)c2)cc1OC`, the half-inhibitory concentration (IC50) in test [1] was determined as 510 nM.

`COc1ccc(CC[C@@H](OC(=O)[C@@H]2CCCCN2C(=O)C(=O)[C@]2(O)CCCC[C@@H]2C)c2cccc(OCC(=O)O)c2)cc1OC` had an IC50 in test [1] of 50 nM.

As for `COc1ccc(CC[C@@H](OC(=O)[C@@H]2CCCCN2C(=O)C(=O)[C@@]2(O)CCCC[C@@H]2C)c2cccc(OCC(=O)O)c2)cc1OC`, the IC50 in test [1] was 50 nM.

In test [1], `COc1ccc(CC[C@@H](OC(=O)[C@@H]2CCCCN2C(=O)C(=O)[C@@]2(O)CCCC[C@H]2C)c2cccc(OCC(=O)O)c2)cc1OC` gave an IC50 of 60 nM.

`CCC(C)(C)C(=O)C(=O)N1CCCC[C@H]1C(=O)O[C@H](CCc1ccc(OC)c(OC)c1)c1cccc(OCC(=O)O)c1`: the IC50 in test [1] amounted to 170 nM; in test [3], 10500 nM.

In the case of `COc1ccc(CC[C@@H](OC(=O)[C@@H]2CCCCN2C(=O)C(=O)[C@]2(O)CCCC[C@H]2C)c2cccc(OCCN3CCOCC3)c2)cc1OC` (mixture of isomers), in test [1], the IC50 worked out at 60 nM.

`CCC(C)(C)C(=O)C(=O)N1CCCC[C@H]1C(=O)NC(CCc1ccc(OC)c(OC)c1)c1cccc(OCC(=O)O)c1` (mixture of isomers): the IC50 in test [1] was 3380 nM; in test [2] it was more than 100000 nM; in test [3], more than 100000 nM.

The compound `COc1ccc(CC[C@@H](OC(=O)[C@@H]2CCCCN2C(=O)C(=O)[C@]2(O)CCCC[C@H]2C)c2cccc(OCC(=O)O)c2)cc1OC` (mixture of isomers) displayed an IC50 in test [1] of 60 nM.

Take `COc1ccc(CCOC(=O)[C@@H]2CCCCN2C(=O)C(=O)[C@]2(O)CCCC[C@H]2C)cc1OC` (mixture of isomers): the values for the IC50 in test [1], in test [2] and in test [3] were 2200 nM, more than 100000 nM and more than 100000 nM, respectively.

As to `COc1ccc(OCCOC(=O)[C@@H]2CCCCN2C(=O)C(=O)[C@]2(O)CCCC[C@H]2C)cc1OC` (mixture of isomers), the IC50 in test [1] worked out at 310 nM; in test [2], 29400 nM; in test [3], 11700 nM.

Take `CC[C@@H]1CCCC[C@@]1(O)C(=O)C(=O)N1CCCC[C@H]1C(=O)OCCOc1ccc(OC)c(OC)c1` (mixture of isomers): the IC50 was 2780 nM in test [1], more than 100000 nM in test [2] and more than 100000 nM in test [3].

In turn, `CC[C@@H]1CCCC[C@@]1(O)C(=O)C(=O)N1CCCC[C@H]1C(=O)O[C@H](CCc1ccc(OC)c(OC)c1)c1cccc(OCC(=O)O)c1` (mixture of isomers) showed an IC50 in test [1] of 320 nM.

`CC[C@@H]1CCCC[C@@]1(O)C(=O)C(=O)N1CCCC[C@H]1C(=O)O[C@H](CCc1ccc(OC)c(OC)c1)c1cccc(OCCN2CCOCC2)c1` (mixture of isomers) registered an IC50 in test [1] of 470 nM.

In test [1], `COc1ccc(CC[C@@H](OC(=O)[C@@H]2CCCCN2C(=O)C(=O)[C@]2(O)CCCC[C@@H]2C)c2cccc(OCC(=O)O)c2)cc1OC` (mixture of isomers) yielded an IC50 of 60 nM.

In test [1], `CC[C@H]1CCCC[C@@]1(O)C(=O)C(=O)N1CCCC[C@H]1C(=O)O[C@H](CCc1ccc(OC)c(OC)c1)c1cccc(OCC(=O)O)c1` (mixture of isomers) yielded an IC50 of 570 nM.

In the case of `COc1cc(C(=O)C(=O)N2CCCC[C@H]2C(=O)OC(CCCc2cccnc2)CCCc2cccnc2)cc(OC)c1OC` [BIRICODAR], the results for the IC50 in test [1], in test [2] and in test [3] were 17 nM, 8520 nM and 7370 nM, respectively.

Take `CCC(C)(C)C(=O)C(=O)N1CCC[C@H]1C(=O)OCCCc1cccnc1` [GPI-1046]: the values for the IC50 in test [1], in test [2] and in test [3] were 1240 nM, more than 100000 nM and more than 100000 nM, respectively.

On to `COc1cc(C(=O)C(=O)N(C)[C@@H](Cc2ccc(Cl)cc2)C(=O)N(Cc2ccccc2)C(CCc2ccncc2)CCc2ccncc2)cc(OC)c1OC` [TIMCODAR], for which the IC50 in test [1], in test [2] and in test [3] was more than 100000 nM in each case.
